Test results as given in the CheMixHub viscosity set.

Assay: xn = mol fraction of the nth substance listed

CCCC(=O)[O-].OCC[NH2+]CCO + CC(=O)O.NCCO
viscosity [mPa·s], 101.3 kPa
Conditions	x2 = 0.1516	x2 = 0.2854	x2 = 0.4059	x2 = 0.5163	x2 = 0.6146	x2 = 0.7052	x2 = 0.7885	x2 = 0.8646	x2 = 0.9348
293.15 K	1991	2150	2309	2468	2628	2787	2946	3105	3264
298.15 K	1330	1434	1538	1642	1746	1850	1955	2059	2163
303.15 K	906.1	972.3	1039	1105	1171	1237	1303	1370	1436
308.15 K	631.9	675.2	718.4	761.7	804.9	848.2	891.4	934.7	978
313.15 K	450.1	479.1	508.1	537.1	566.1	595.1	624.1	653.1	682.1
318.15 K	327	347	366.9	386.9	406.8	426.8	446.7	466.7	486.6
323.15 K	242	256	270.1	284.1	298.1	312.2	326.2	340.2	354.3

c1ccc2ccccc2c1 + Clc1ccccc1
viscosity [mPa·s], 101 kPa
Conditions	308.15 K	313.15 K	318.15 K	323.15 K
x1 = 0.3525	0.962	0.9041	0.8436	0.7981
x1 = 0.4003	1.011	0.945	0.887	0.832

C1CCOC1 + O=C1CCCO1
viscosity [mPa·s]
Conditions	293.15 K	298.15 K	303.15 K	308.15 K	313.15 K	318.15 K	323.15 K
101 kPa, x1 = 0.1009	1.614	1.496	1.39	1.297	1.212	1.136	1.068
101 kPa, x1 = 0.2003	1.388	1.292	1.206	1.128	1.058	0.995	0.938
101 kPa, x1 = 0.3008	1.203	1.123	1.052	0.987	0.93	0.877	0.83
101 kPa, x1 = 0.4004	1.046	0.98	0.92	0.866	0.818	0.773	0.733
101 kPa, x1 = 0.4916	0.936	0.878	0.825	0.778	0.735	0.696	0.66
101 kPa, x1 = 0.5991	0.809	0.761	0.717	0.677	0.641	0.608	0.578
101 kPa, x1 = 0.6997	0.706	0.667	0.631	0.598	0.567	0.537	0.511
101 kPa, x1 = 0.8	0.62	0.589	0.56	0.531	0.506	0.482	0.461
101 kPa, x1 = 0.8997	0.567	0.538	0.511	0.485	0.463	0.441	0.415
101.33 kPa, x1 = 0.1077	1.583	1.462	–	–	–	–	–
101.33 kPa, x1 = 0.3124	1.172	1.089	–	–	–	–	–
101.33 kPa, x1 = 0.701	0.682	0.641	–	–	–	–	–
101.33 kPa, x1 = 0.8954	0.539	0.51	–	–	–	–	–

Cc1ccccc1 + CCCCO
viscosity [mPa·s]
Conditions	298.15 K	303.15 K	308.15 K	313.15 K	318.15 K
101 kPa, x1 = 0.092	2.01	1.769	1.581	1.393	1.292
101 kPa, x1 = 0.1987	1.59	1.459	1.323	1.199	1.106
101 kPa, x1 = 0.2983	1.279	1.181	1.076	0.9827	0.9514
101 kPa, x1 = 0.393	1.084	1.004	0.9192	0.8418	0.8198
101 kPa, x1 = 0.5091	0.8978	0.8372	0.7739	0.714	0.7048
101 kPa, x2 = 0.12	0.56	–	–	–	–
101 kPa, x2 = 0.24	0.635	–	–	–	–
101 kPa, x2 = 0.35	0.715	–	–	–	–
101 kPa, x2 = 0.45	0.84	–	–	–	–
101 kPa, x2 = 0.55	0.997	–	–	–	–
101 kPa, x2 = 0.65	1.199	–	–	–	–
101 kPa, x2 = 0.74	1.441	–	–	–	–
101 kPa, x2 = 0.83	1.73	–	–	–	–
101 kPa, x2 = 0.92	2.12	–	–	–	–
101.33 kPa, x1 = 0.0859	–	1.86	1.656	1.489	–
101.33 kPa, x1 = 0.2006	–	1.452	1.311	1.193	–
101.33 kPa, x1 = 0.2972	–	1.175	1.065	0.979	–
101.33 kPa, x1 = 0.3877	–	0.999	0.911	0.84	–
101.33 kPa, x1 = 0.5025	–	0.833	0.77	0.713	–
101.33 kPa, x1 = 0.6013	–	0.726	0.675	0.629	–
101.33 kPa, x1 = 0.7617	–	0.59	0.557	0.524	–
101.33 kPa, x1 = 0.8121	–	0.571	0.534	0.507	–
101.33 kPa, x1 = 0.947	–	0.526	0.498	0.478	–

C1CCOC1 + CN(C)C=O
viscosity [mPa·s], 101 kPa
Conditions	x2 = 0.0988	x2 = 0.1978	x2 = 0.2971	x2 = 0.3967	x2 = 0.4966	x2 = 0.5967	x2 = 0.6971	x2 = 0.7978	x2 = 0.8988
298.15 K	0.47	0.482	0.496	0.518	0.547	0.586	0.63	0.679	0.737
308.15 K	0.434	0.444	0.458	0.476	0.502	0.533	0.57	0.614	0.659
318.15 K	0.41	0.431	0.454	0.478	0.502	0.523	0.545	0.568	0.592

CC(=O)C(=O)[O-].[Na+] + O
viscosity [mPa·s], 101 kPa
Conditions	x1 = 0.00036	x1 = 0.000648	x1 = 0.000936	x1 = 0.00137	x1 = 0.00151	x1 = 0.0018
298.15 K	0.8972	0.9038	0.9104	0.9173	0.9206	0.9267
303.15 K	0.8044	0.811	0.8176	0.826	0.8308	0.8369
308.15 K	0.7257	0.7308	0.7375	0.7474	0.7507	0.7569
313.15 K	0.6602	0.6669	0.6735	0.682	0.6868	0.6931

CCCCCCCCC(=O)O + CCCCCC(=O)[O-].[Na+]
100 kPa, x2 = 0.3
Conditions	viscosity [mPa·s]
293.15 K	280.5
298.15 K	209
303.15 K	158.8
308.15 K	122.9
313.15 K	96.5
318.15 K	76.9
323.15 K	62.2

CC(C)C[P+](C)(CC(C)C)CC(C)C.Cc1ccc(S(=O)(=O)[O-])cc1 + O=S1(=O)CCCC1
Conditions	viscosity [mPa·s]
323.15 K, 101.33 kPa, x1 = 0.5	68.5

CC(=O)N(C)c1ccccc1 + c1ccncc1
298.15 K, 101 kPa
Conditions	viscosity [mPa·s]
x1 = 0.0361	0.967
x1 = 0.06268	1.022
x1 = 0.09446	1.082

O=S(=O)([O-])[O-].[Mn+2] + [2H]O[2H]
viscosity [mPa·s], 101 kPa
Conditions	x1 = 0.005	x1 = 0.012	x1 = 0.02	x1 = 0.029	x1 = 0.037
298.15 K	1.297	1.59	2.183	3.14	4.452
308.15 K	1	1.247	1.696	2.404	3.327
318.15 K	0.827	1.008	1.371	1.912	2.575

COc1ccccc1 + CCCCCCO
viscosity [mPa·s], 101.33 kPa
Conditions	x1 = 0.0998	x1 = 0.2	x1 = 0.3002	x1 = 0.4	x1 = 0.5	x1 = 0.6002	x1 = 0.6997	x1 = 0.8001	x1 = 0.9
303.15 K	3.055	2.413	1.969	1.661	1.423	1.27	1.097	1.009	0.927
313.15 K	2.325	1.886	1.569	1.334	1.166	1.049	0.932	0.858	0.798
323.15 K	1.798	1.481	1.248	1.107	0.966	0.878	0.786	0.744	0.699

CCCC[P+](CCCC)(CCCC)CCCC.CS(=O)(=O)[O-] + c1c[nH]cn1
101.33 kPa, x1 = 0.5
Conditions	viscosity [mPa·s]
313.05 K	99.81
323.05 K	61.32
